One assay addresses T1, endogenous NPR1 (Arabidopsis thaliana, UniProt P93002).
T1 construct: from tissue; host or cells: leaf tissue of three-week-old Arabidopsis Col-0 plants
T1 sequence (P93002 1-593): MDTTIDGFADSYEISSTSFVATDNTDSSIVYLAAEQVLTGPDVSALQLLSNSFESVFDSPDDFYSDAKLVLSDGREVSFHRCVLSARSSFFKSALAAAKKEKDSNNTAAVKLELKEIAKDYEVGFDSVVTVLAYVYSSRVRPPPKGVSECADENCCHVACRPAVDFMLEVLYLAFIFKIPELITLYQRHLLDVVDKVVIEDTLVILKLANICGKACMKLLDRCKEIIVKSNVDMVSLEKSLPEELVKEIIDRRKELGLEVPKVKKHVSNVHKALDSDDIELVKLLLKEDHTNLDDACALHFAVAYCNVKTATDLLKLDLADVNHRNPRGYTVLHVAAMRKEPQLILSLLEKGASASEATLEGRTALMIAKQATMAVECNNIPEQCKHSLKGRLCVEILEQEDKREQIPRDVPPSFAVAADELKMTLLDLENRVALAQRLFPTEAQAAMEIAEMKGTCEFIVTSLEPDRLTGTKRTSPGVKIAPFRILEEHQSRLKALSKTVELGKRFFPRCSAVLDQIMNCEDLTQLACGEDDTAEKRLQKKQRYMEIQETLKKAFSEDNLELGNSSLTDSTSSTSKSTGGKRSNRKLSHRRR
Nature of the assay: Cell fractionation of endogenous NPR1 (cytoplasmic/nuclear). Format: in vivo. Conditions: 6 hr, Col-0. As for the experimental part:
Cell fractionation. Cytoplasmic and nuclear proteins were sequentially isolated from three-week-old Arabidopsis (Col-0) plants using 1 g of leaf tissue and a sucrose gradient protocol described previously with modifications. Tissue was homogenized in lysis buffer (20 mM Tris-HCl, pH 7.5, 20 mM KCl, 2 mM EDTA, 2.5 mM MgCl2, 25% glycerol, 0.25 M Sucrose) supplemented with 100 μM MG132, EDTA-free protease inhibitor cocktail, 1 mM PMSF and 5 mM DTT. The lysate was filtered through a 70 μm filter and centrifuged at 20,000 g for 15 min at 4° C., and the supernatant was collected (cytoplasmic fraction). The pellet was washed four times with 5 ml of NRBT buffer (20 mM Tris-HCl, pH 7.4, 25% glycerol, 2.5 mM MgCl2, and 0.2% Triton X-100). After the last wash, the pellet was resuspended with 500 μl of NRB2 buffer (20 mM Tris-HCl, pH 7.5, 0.25 M Sucrose, 10 mM MgCl2, 0.5% Triton X-100) supplemented with protease inhibitor cocktail and 5 mM BME. The obtained suspension was layered at 1:1 on top of the NRB3 buffer (20 mM Tris-HCl, pH 7.5, 1.7 M Sucrose, 10 mM MgCl2, 0.5% Triton X-100) supplemented with protease inhibitor cocktail and 5 mM BME, centrifuged at 16,000 g for 45 min at 4° C. The top layer was removed and the pellet was resuspended with 200 μl of plant extraction buffer containing 1% Triton X-100, protease inhibitor cocktail and 5 mM BME (nuclear fraction). […]

For assay [1], the system named is Psm ES4326/AvrRpt2-mediated cell death. The experiment in a line: Cell death (conductivity/electrolyte leakage, trypan blue) after Psm ES4326/AvrRpt2 inoculation. The settings on record: SA pretreatment at 0.5 and 1 mM; WT plants, not in npr1-2 mutant. Type of assay: in vivo, Arabidopsis thaliana. As for the experimental part:
(§1) Chemical treatment, pathogen infection and cell death assays. […] At 2 days, the bacterial colonies were scored.
Trypan blue staining. Leaves of three-week-old Arabidopsis infected with Psm ES4326/AvrRpt2 were sampled at 1 dpi, boiled in 95% ethanol until completely bleached, followed by boiling for 3 min in a 1:1 mixture of 95% ethanol and staining solution (10 ml lactic acid, 10 ml glycerol, 10 g phenol and 10 mg trypan blue, dissolved in 10 ml DDW). The leaves were then de-stained in 2.5 g/ml chloral hydrate solution and transferred to 70% glycerol for subsequent imaging.

A further assay deals with T2, NPR1-GFP (Arabidopsis thaliana, UniProt P93002).
T2 construct: expressed in transfected cells; host or cells: Arabidopsis Col-0 seedlings, Agrobacterium-mediated transient expression
T2 sequence (P93002 1-593): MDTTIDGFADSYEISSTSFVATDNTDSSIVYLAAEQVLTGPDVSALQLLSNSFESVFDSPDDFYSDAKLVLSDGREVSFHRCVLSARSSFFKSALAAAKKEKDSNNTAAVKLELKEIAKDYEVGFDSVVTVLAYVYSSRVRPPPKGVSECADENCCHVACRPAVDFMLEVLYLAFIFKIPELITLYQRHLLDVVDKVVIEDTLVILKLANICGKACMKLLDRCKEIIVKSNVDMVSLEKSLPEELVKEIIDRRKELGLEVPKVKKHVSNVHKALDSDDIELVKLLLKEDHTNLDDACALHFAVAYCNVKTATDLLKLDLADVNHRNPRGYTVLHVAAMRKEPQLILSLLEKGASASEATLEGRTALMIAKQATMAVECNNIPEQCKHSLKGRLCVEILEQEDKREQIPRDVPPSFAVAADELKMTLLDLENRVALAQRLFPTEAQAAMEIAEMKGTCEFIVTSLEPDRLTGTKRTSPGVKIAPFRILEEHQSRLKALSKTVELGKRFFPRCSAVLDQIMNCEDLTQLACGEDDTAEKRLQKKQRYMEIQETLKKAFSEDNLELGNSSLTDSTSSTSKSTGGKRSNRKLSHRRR
Nature of the assay: Localization of NPR1-GFP and sim3-GFP, transient expression in Arabidopsis seedlings. Format: cell-based. Conditions: for nuclear-cytoplasmic partitioning of NPR1-GFP: 2 hr.

In the next assay the test system is Psm ES4326/AvrRpt2. Nature of the assay: Bacterial growth assay in infected leaves. Type of assay: in vivo, Arabidopsis thaliana. Conditions: SA pretreatment at 0.5 and 1 mM; WT plants, not in npr1-2 mutant.
Text: as §1

The next assay deals with FLAG-WRKY70. Nature of the assay: NPR1-CRL3 ubiquitination cascade reconstituted in E. coli. Format: biochemical, Arabidopsis thaliana. Conditions: 1 mM sodium salicylate.

As for `O=C(O)c1ccccc1O` [SA, salicylic acid], the “subcellular accumulation of endogenous NPR1” value is on record as “more NPR1 accumulated in the cytoplasm” at endogenous NPR1 (1 mM SA); “increased nuclear accumulation” on endogenous NPR1 (0.1 and 0.5 mM SA). Besides, the “Psm ES4326/AvrRpt2-mediated cell death” value in assay [1] is given as “fully suppress”. The “nuclear-cytoplasmic partitioning of NPR1-GFP” value at NPR1-GFP (1 mM SA) is given as “predominant nuclear accumulation of NPR1-GFP”; on NPR1-GFP (5 mM SA), “fluorescence was detected also in the cytoplasm”. Also, at NPR1-GFP (SA treatment 2 hr), the “formation of NPR1-GFP bodies in nucleus and cytoplasm” value is on record as “induced formation of discrete NPR1-GFP bodies”. Also, in the assay on Psm ES4326/AvrRpt2, the pathogen growth entry is listed as “increased pathogen growth”.

As for “NPR1: wild-type Arabidopsis thaliana NPR1 protein, positive regulator of systemic acquired resistance”, in the assay on FLAG-WRKY70, the “ubiquitination of WRKY70 in reconstituted NPR1-CRL3 cascade” value is reported as “could mediate ubiquitination of WRKY70”.

B1: sim3: SUMOylation-deficient mutant of NPR1 (protein)
chain: MDTTIDGFADSYEISSTSFVATDNTDSSIVYLAAEQVLTGPDVSALQLLSNSFESVFDSPDDFYSDAKLVLSDGREVSFHRCVLSARSSFFKSALAAAKKEKDSNNTAAVKLELKEIAKDYEVGFDSVVTVLAYVYSSRVRPPPKGVSECADENCCHVACRPAVDFMLEVLYLAFIFKIPELITLYQRHLLDVVDKVVIEDTLVILKLANICGKACMKLLDRCKEIIVKSNVDMVSLEKSLPEELVKEIIDRRKELGLEVPKVKKHVSNVHKALDSDDIELVKLLLKEDHTNLDDACALHFAVAYCNVKTATDLLKLDLADVNHRNPRGYTVLHVAAMRKEPQLAASALEKGASASEATLEGRTALMIAKQATMAVECNNIPEQCKHSLKGRLCVEILEQEDKREQIPRDVPPSFAVAADELKMTLLDLENRVALAQRLFPTEAQAAMEIAEMKGTCEFIVTSLEPDRLTGTKRTSPGVKIAPFRILEEHQSRLKALSKTVELGKRFFPRCSAVLDQIMNCEDLTQLACGEDDTAEKRLQKKQRYMEIQETLKKAFSEDNLELGNSSLTDSTSSTSKSTGGKRSNRKLSHRRR
modifications: left off: small tags and cut ends
notes: SUMOylation-deficient mutant of NPR1
In the case of B1, in the assay with NPR1-GFP (after SA treatment), the subcellular localization entry was “predominant cytoplasmic localization”. In addition, in the assay with NPR1-GFP (lower SA concentration (1 mM), Arabidopsis seedlings), the cytoplasmic body formation entry is recorded as “cytoplasmic bodies were also observed at the lower SA concentration”. Also, the “ubiquitination of WRKY70 in reconstituted NPR1-CRL3 cascade” value with FLAG-WRKY70 is given as “could mediate ubiquitination of WRKY70”.

The values are drawn from US20230227838A1, “ENHANCED CELL SURVIVAL AGAINST BIOTIC AND ABIOTIC STRESSES THROUGH SALICYLICK ACID-INDUCED NPR1 CONDENSATES” (priority 2020, published 2023).
